Test results as given in patent publication US11819533B2, “Compositions and methods for the treatment of fungal infections” (Cidara Therapeutics, Inc., priority 2017, dated 2023).
Like-named read-outs stand apart in the source and are kept apart here. Starred links: 1 amine or outer side, 2 acyl side, 3 side chain; linkers in the order of their positions; H or OH if unused. Positions of bridges follow the written chain, without caps; N, C: chain ends. Non-standard residues stand in square brackets, D forms with d. Residues, ends and D or L forms follow the SMILES beside them. *: point of attachment. Orn(4R-OH,5R-OCH2CH2NMe3+) = C[N+](C)(C)CCO[C@@H](N[*:3])[C@H](O)C[C@H](N[*:1])C(=O)[*:2]; pTerphenylCO(4''-OnC5H11) = CCCCCOc1ccc(-c2ccc(-c3ccc(C(=O)*)cc3)cc2)cc1; hTyr(3S-OH,4S-OH) = N[C@H](C(=O)O)[C@H](O)[C@@H](O)c1ccc(O)cc1; Pro(3S-OH,4S-Me) = C[C@H]1CN[C@H](C(=O)O)[C@H]1O; Hyp = O=C(O)[C@@H]1C[C@@H](O)CN1

What was measured:
[1] = PBS buffer drop test (Example 3); assay type: physicochemical
Experimental: These solutions were tested for solubility in the PBS drop test, which involved adding the solution dropwise into PBS solution (1:4.3 dilution) and visually observing the resulting solution for any precipitation. PBS buffer serves as a surrogate for plasma, and the PBS drop test is used to evaluate the potential for insolubility as the drug enters the bloodstream at the injection site.

[2] = Solubility of CD101 acetate in various media; assay type: physicochemical
Text: Table 1 below provides the solubility of CD101 acetate in different solutions.

**Q.** Which “Appearance upon PBS drop test” value ([1]; 0.3% acetic acid, 1.25% Tween 80 and 5% mannitol, pH 4.5, 6.0 mg/mL, 1.4 mg/mL in PBS) does the source give for `CCCCCOc1ccc(-c2ccc(-c3ccc(C(=O)N[C@H]4C[C@@H](O)[C@@H](OCC[N+](C)(C)C)NC(=O)[C@@H]5[C@@H](O)[C@@H](C)CN5C(=O)[C@H]([C@@H](C)O)NC(=O)[C@H]([C@H](O)[C@@H](O)c5ccc(O)cc5)NC(=O)[C@@H]5C[C@@H](O)CN5C(=O)[C@H]([C@@H](C)O)NC4=O)cc3)cc2)cc1` [CD101 acetate] ({pTerphenylCO(4''-OnC5H11)}-[Orn(4R-OH,5R-OCH2CH2NMe3+)]T[Hyp][hTyr(3S-OH,4S-OH)]T[Pro(3S-OH,4S-Me)]; lactam 1-C) here?
**A.** Its value is “Clear”.

**Q.** What about the “Appearance upon PBS drop test” value ([1]; 0.3% acetic acid, 2.5% Tween 80 and 5% mannitol, pH 4.5, 4 mg/mL, 0.92 mg/mL in PBS) of the same compound?
**A.** Its value is “Clear”.

**Q.** And the “Appearance upon PBS drop test” value ([1]; 0.3% acetic acid, 2.5% Tween 80 and 5% mannitol, pH 4.5, 6.0 mg/mL, 1.4 mg/mL in PBS)?
**A.** The value was “Clear”.

**Q.** And the “Appearance upon PBS drop test” value ([1]; 0.3% acetic acid, 2.5% Tween 80 and 5% mannitol, pH 4.5, 8.0 mg/mL, 1.8 mg/mL in PBS)?
**A.** The value was “Clear”.

**Q.** What about the “Appearance upon PBS drop test” value ([1]; 0.9% Saline, pH 5.3, 2.8% Tween 80, 4 mg/mL) of the same compound?
**A.** The value was “Clear”.

**Q.** And the “Appearance upon PBS drop test” value ([1]; 0.9% Saline, pH 6.6, 2.5% Tween 80, 4 mg/mL)?
**A.** The value was “Clear”.

**Q.** What about the “Appearance upon PBS drop test” value ([1]; 0.9% Saline, pH 7.2, 1.75% Tween 80, 4 mg/mL) of the same compound?
**A.** The value was “Clear”.

**Q.** What about the “Appearance upon PBS drop test” value ([1]; 0.9% Saline, pH 7.2, 2.5% Tween 80, 4 mg/mL) of the same compound?
**A.** The value was “Clear”.

**Q.** And the “Appearance upon PBS drop test” value ([1]; 0.9% Saline, reverse addition (CD101 acetate and Tween 80 mixed first, then saline added), 1.75% Tween 80, 4 mg/mL)?
**A.** Its value is “Clear”.

**Q.** And the “Appearance upon PBS drop test” value ([1]; 5% Mannitol/25 mM Na Acetate, pH 4.63, 2.5% Tween 80, 4 mg/mL)?
**A.** The value was “Clear”.

**Q.** And the “Appearance upon PBS drop test” value ([1]; 5% Mannitol/30 mM Na Lactate, pH 5.45, 2.5% Tween 80, 4 mg/mL)?
**A.** The value was “Clear”.

**Q.** What about the “Appearance upon PBS drop test” value ([1]; 5% Mannitol/0.3% Acetic Acid, pH 3.54, 2.5% Tween 80, 4 mg/mL) of the same compound?
**A.** The value was “Clear”.

**Q.** And the “Appearance upon PBS drop test” value ([1]; PBS buffer pH 7.4, pH 7.13, 1.75% Tween 80, 4 mg/mL)?
**A.** The value was “Clear”.

**Q.** And the solubility ([2]; 15 mM potassium chloride, saline or isotonic, Potassium chloride (15 mM), read-out: Solubility)?
**A.** Its solubility is over 1700 µg/mL.

**Q.** What about the solubility ([2]; 50 mM acetate buffer with 0.4% Tween 20, aqueous with cosolvent or surfactant or cyclodextrin, 50 mM Acetate buffer pH 4.5 with 0.4% Tween 20, maximum solubility not reached, read-out: Solubility) of the same compound?
**A.** Its solubility is over 31300 µg/mL.

**Q.** And the solubility ([2]; 100 mM lactate buffer, aqueous buffer, Lactate buffer (100 mM), pH 6.5, maximum solubility not reached, read-out: Solubility)?
**A.** Its solubility is over 48000 µg/mL.

**Q.** What about the solubility ([2]; 100 mM lactate buffer, aqueous buffer, Lactate buffer (100 mM), pH 7.4, maximum solubility not reached, read-out: Solubility) of the same compound?
**A.** The solubility was over 51000 µg/mL.

**Q.** What about the solubility ([2]; 100 mM phosphate buffer, pH 7.4, aqueous buffer, read-out: Solubility) of the same compound?
**A.** Its solubility is 7 to 10 µg/mL.

**Q.** What about the solubility ([2]; 150 mM KCl, saline or isotonic, KCl (150 mM), read-out: Solubility) of the same compound?
**A.** Its solubility is under 200 µg/mL.

**Q.** And the solubility ([2]; 150 mM potassium chloride, saline or isotonic, Potassium chloride (150 mM), read-out: Solubility)?
**A.** Its solubility is 160 µg/mL.

**Q.** What about the solubility ([2]; 0.9% saline with 0.125% Tween 80, aqueous with cosolvent or surfactant or cyclodextrin, 0.9% Saline (USP) with 0.125% Tween 80, read-out: Solubility) of the same compound?
**A.** The solubility was over 800 µg/mL.

**Q.** What about the solubility ([2]; 0.9% saline with 0.5% Tween 80, aqueous with cosolvent or surfactant or cyclodextrin, 0.9% Saline (USP) with 0.5% Tween 80, read-out: Solubility) of the same compound?
**A.** The solubility was over 3500 µg/mL.

**Q.** And the solubility ([2]; 0.9% saline with 1% Tween 20, aqueous with cosolvent or surfactant or cyclodextrin, 0.9% Saline (USP) with 1% Tween 20, maximum solubility not reached, read-out: Solubility)?
**A.** Its solubility is over 2600 µg/mL.

**Q.** And the solubility ([2]; 0.9% saline with 2.5% Tween 80, aqueous with cosolvent or surfactant or cyclodextrin, 0.9% Saline (USP) with 2.5% Tween 80 (polysorbate 80), read-out: Solubility)?
**A.** Its solubility is over 3500 µg/mL.

**Q.** What about the solubility ([2]; 0.9% saline with 4% dodecylmaltoside and 1% Tween 20, aqueous with cosolvent or surfactant or cyclodextrin, 0.9% Saline Solution (USP), 4% dodecylmaltoside (DDM), 1% Tween 20, maximum solubility not reached, read-out: Solubility) of the same compound?
**A.** The solubility was over 10000 µg/mL.

**Q.** What about the solubility ([2]; 0.9% saline with 7% tetradecylmaltoside, aqueous with cosolvent or surfactant or cyclodextrin, 0.9% Saline Solution (USP), 7% tetradecylmaltoside (TDM), maximum solubility not reached, read-out: Solubility) of the same compound?
**A.** Its solubility is over 11000 µg/mL.

**Q.** And the Solubility in words ([2]; PBS buffer)?
**A.** The Solubility in words was “nearly insoluble”.

**Q.** And the solubility ([2]; PBS buffer with 2.5% Tween 80, pH 7.4, aqueous with cosolvent or surfactant or cyclodextrin, read-out: Solubility)?
**A.** Its solubility is over 4000 µg/mL.

**Q.** And the solubility ([2]; Water (USP), maximum solubility not reached, read-out: Solubility)?
**A.** The solubility was over 100000 µg/mL.

**Q.** And the solubility ([2]; aqueous buffer, 100 mM Tris buffer, pH 7.4, maximum solubility not reached, read-out: Solubility)?
**A.** The solubility was over 52000 µg/mL.

**Q.** What about the solubility ([2]; aqueous buffer, 1:10 diluted PBS buffer, pH 7.4, maximum solubility not reached, read-out: Solubility) of the same compound?
**A.** The solubility was over 2100 µg/mL.

**Q.** What about the solubility ([2]; aqueous buffer, 5% Citric Acid, maximum solubility not reached, read-out: Solubility) of the same compound?
**A.** Its solubility is over 18600 µg/mL.

**Q.** And the solubility ([2]; aqueous buffer, 50-100 mM Acetate buffer, pH 4.5, maximum solubility not reached, read-out: Solubility)?
**A.** Its solubility is over 45000 µg/mL.

**Q.** What about the solubility ([2]; aqueous buffer, Phosphate buffered saline (PBS buffer), pH 7.4, read-out: Solubility) of the same compound?
**A.** The solubility was 5 to 7 µg/mL.

**Q.** And the solubility ([2]; aqueous with cosolvent or surfactant or cyclodextrin, 0.3% acetic acid, 5% mannitol, 2.5% Tween 80, pH 4.5, maximum solubility not reached, read-out: Solubility)?
**A.** Its solubility is over 15000 µg/mL.

**Q.** What about the solubility ([2]; aqueous with cosolvent or surfactant or cyclodextrin, 0.85% Tween 80 in PBS buffer, pH 7.4, maximum solubility not reached, read-out: Solubility) of the same compound?
**A.** Its solubility is over 4100 µg/mL.

**Q.** And the solubility ([2]; aqueous with cosolvent or surfactant or cyclodextrin, 2.5% Tween 80, 5% mannitol, 0.3% acetic acid, pH 4.5, maximum solubility not reached, read-out: Solubility)?
**A.** The solubility was over 16000 µg/mL.

**Q.** And the solubility ([2]; aqueous with cosolvent or surfactant or cyclodextrin, Lactated Ringer's Solution for Injection (USP), prepared from stock in USP water with 0.7% Tween 20, maximum solubility not reached, read-out: Solubility)?
**A.** Its solubility is over 800 µg/mL.

**Q.** And the solubility ([2]; aqueous with cosolvent or surfactant or cyclodextrin, PBS buffer with 1% Tween 20, pH 7.4, maximum solubility not reached, read-out: Solubility)?
**A.** The solubility was over 370 µg/mL.

**Q.** And the solubility ([2]; saline or isotonic, 0.09% Saline, maximum solubility not reached, read-out: Solubility)?
**A.** Its solubility is over 1400 µg/mL.

**Q.** And the solubility ([2]; saline or isotonic, 0.225% Saline (USP), maximum solubility not reached, read-out: Solubility)?
**A.** The solubility was over 1200 µg/mL.

**Q.** What about the solubility ([2]; saline or isotonic, 0.45% Saline (USP), maximum solubility not reached, read-out: Solubility) of the same compound?
**A.** The solubility was over 1300 µg/mL.

**Q.** And the solubility ([2]; saline or isotonic, 0.9% Saline (USP), read-out: Solubility)?
**A.** Its solubility is under 180 µg/mL.

**Q.** And the solubility ([2]; saline or isotonic, 5% D-Mannitol, maximum solubility not reached, read-out: Solubility)?
**A.** The solubility was over 4000 µg/mL.

**Q.** And the solubility ([2]; saline or isotonic, 5% Dextrose Solution (USP), maximum solubility not reached, read-out: Solubility)?
**A.** Its solubility is over 12000 µg/mL.

**Q.** And the solubility ([2]; saline or isotonic, 5% dextrose, 5% mannitol and 0.22%-0.45% Sterile Saline Solution, read-out: Solubility (soluble))?
**A.** Its solubility is over 1000 µg/mL.

**Q.** And the solubility ([2]; saline or isotonic, Lactated Ringer's Solution for Injection (USP), read-out: Solubility)?
**A.** Its solubility is under 100 µg/mL.
